In data set [1] the test system is P. berghei-ANKA-GFP-LucCON liver stage parasites in HepG2-A16-CD81EGFP cells. As to the kind of experiment: P. berghei liver stage Pb-Luc assay, Method 1 (UCSD, 1536-well). Type of data set: cell-based, Plasmodium berghei. Particulars: Plasmodium berghei, 48 h, average of 2 wells on a 1536 well plate; call rule not given here.
For data set [2], the system named is luciferase-expressing P. berghei liver stage parasites in HepG2 cells. In words: Inhibition of liver-stage development assay (ILSDA), Method 2 (WRAIR, 96-well). Format: cell-based, Plasmodium berghei. The settings on record: for Max Resp (signal direction of the dose response): Method 2, Decrease = decreasing P. berghei viability with dose, Increase = increasing signal, Inactive = no dose response; for AC50: Plasmodium berghei, HepG2, Method 2.

In data set [3] the test system is Plasmodium falciparum Dd2 asexual blood stage parasites. In words: microbe, parasite or virus in culture. On the set-up: species or system Plasmodium falciparum Dd2 in human erythrocytes; single determination (one 11-point concentration-response curve). Particulars: Plasmodium falciparum, DD2, Erythrocyte, 72 h; read-out: AC50.
Data set [4] deals with HepG2-A16-CD81EGFP cells. The settings on record: average of 2 wells.
Data set [5] can be described thus: in vitro. Particulars: human, HepG2 cells; n = 1.
Data set [6] can be described thus: in vitro. The settings on record: human, HepG2-A16-CD81EGFP cells, uninfected.
Where [7] appears, read: Hill fit, 50% of maximum activity response, read-out: AC50.
[8] abbreviates: log10 of molar AC50 from Hill fit, read-out: Log AC50 (converted).
The mark [9] stands for this setting: 1 uM (compounds provided at 10 mM), column 11, read-out: Pb-Luc (P. berghei liver stage), % of control, lower concentration, first repeat.
Setting [10] is: 1 uM (compounds provided at 10 mM), column 12, read-out: Pb-Luc (P. berghei liver stage), % of control, lower concentration, second repeat.
Setting [11] is: 3 uM (compounds provided at 10 mM), column 8, read-out: Pb-Luc (P. berghei liver stage), % of control, higher concentration, first repeat.
Setting [12] is: 3 uM (compounds provided at 10 mM), column 9, read-out: Pb-Luc (P. berghei liver stage), % of control, higher concentration, second repeat.

Molecules are shown by their SMILES. Read-outs that look alike come from different tables or passages of the source.

For `Cc1nc2ccc(NC(=O)c3cc(S(=O)(=O)N(C)c4ccccc4)ccc3Cl)cc2s1` [MLS000393823-01], the activity at 1 µM turned out to be 19% in data set [1] (P. berghei liver stage, 1 µM compound treatment (10 mM stocks), replicate 1, normalized, read-out: PbLuc 1uM growth rep1) and 15% in data set [1] (P. berghei liver stage, 1 µM compound treatment (10 mM stocks), replicate 2, normalized, read-out: PbLuc 1uM growth rep2). Moreover, the activity at 3 µM in data set [1] (P. berghei liver stage, 3 µM compound treatment (10 mM stocks), replicate 1, normalized, read-out: PbLuc 3uM growth rep1) worked out at 3.66%; in data set [1] (P. berghei liver stage, 3 µM compound treatment (10 mM stocks), replicate 2, normalized, read-out: PbLuc 3uM growth rep2), 5.53%. The “Max Resp (signal direction of the dose response)” value (“Max Resp” below) in data set [2] was “Decrease”. The values for the AC50 in data set [2] (setting [7]), in data set [2] (setting [8]) and in data set [3] were 0.501 µM, 0.501 µM and 0.841 µM, respectively. The “HepG2 1uM growth rep1” value in data set [4] (HepG2, 1 µM compound treatment (10 mM stocks), replicate 1, normalized) was 61%. Moreover, the “HepG2 1uM growth rep2” value in data set [4] (HepG2, 1 µM compound treatment (10 mM stocks), replicate 2, normalized) stood at 56%. For the same molecule, the “HepG2 3uM growth rep1” value in data set [4] (HepG2, 3 µM compound treatment (10 mM stocks), replicate 1, normalized) worked out at 59%. Besides, the “HepG2 3uM growth rep2” value in data set [4] (HepG2, 3 µM compound treatment (10 mM stocks), replicate 2, normalized) is listed as 60%. For the same molecule, it took 9.68 µM to reach half-maximal cytotoxicity in data set [5] (CC50 at 48 h).

As to `O=c1cc(CSc2ccc(Cl)cc2)nc(-c2ccccn2)[nH]1` [MLS001166297-01], the activity at 1 µM came to 17% in data set [1] (setting [9]) and 15% in data set [1] (setting [10]). Further, the results for the activity at 3 µM in data set [1] (setting [11]) and in data set [1] (setting [12]) were 8% and 5%, respectively. Also, the “Max Resp” value in data set [2] is given as “Inactive”. For the same molecule, in data set [3], the AC50 worked out at 5.96 µM. Also, the viability at 48 h, 1 µM in data set [6] is 92%. Also, the viability at 48 h, 3 µM in data set [6] was found to be 73%. The molecule further had a CC50 at 48 h in data set [5] of 12.2 µM.

On to `O=C(Nc1ccccc1O)c1ccc(NC(=O)C2CC2)cc1` [MLS001162082-01], for which the activity at 1 µM in data set [1] (setting [9]) amounted to 40%; in data set [1] (setting [10]), 37%. In addition, the activity at 3 µM in data set [1] (setting [11]) and in data set [1] (setting [12]) was 10% each time. Also, the “Max Resp” value in data set [2] is “Decrease”. Besides, the AC50 is 2.24 µM in data set [2] (setting [7]), 2.24 µM in data set [2] (setting [8]) and 4.73 µM in data set [3]. In addition, the viability at 48 h, 1 µM in data set [6] amounted to 114%. Moreover, the viability at 48 h, 3 µM in data set [6] came to 108%. This molecule gave a CC50 at 48 h in data set [5] of 10.9 µM.

Source of the values: paper PMC7822874, “Chemoprotective antimalarials identified through quantitative high-throughput screening of Plasmodium blood and liver stage parasites” (Scientific Reports, 2021).
